Source: ChEMBL document CHEMBL5303573, “Mapping human microbiome drug metabolism by gut bacteria and their genes” (Nature, 2019)

How the values were obtained:
[1] = The drug is tested on Clostridium sporogenes strain: ATCC15579 for biotransformation. The drug concentrations were measured before and after a 12-h incubation by liquid-chromatography-coupled mass spectrometry (LC–MS); details: 2 µM
[2] = bacteroides thetaiotaomicron, 12 h, 2 µM
Description: The drug is tested on Bacteroides thetaiotaomicron strain: 3731 for biotransformation. The drug concentrations were measured before and after a 12-h incubation by liquid-chromatography-coupled mass spectrometry (LC–MS)

[3] = The drug is tested on Coprococcus comes strain: ATCC27758 for biotransformation. The drug concentrations were measured before and after a 12-h incubation by liquid-chromatography-coupled mass spectrometry (LC–MS); type: ADME; set-up: dose 2 uM, timepoint 0 vs 12 hours; details: 2 µM
[4] = The drug is tested on Clostridium scindens strain: ATCC35704 for biotransformation. The drug concentrations were measured before and after a 12-h incubation by liquid-chromatography-coupled mass spectrometry (LC–MS); details: 2 µM
[5] = The drug is tested on Parabacteroides merdae strain: ATCC43184 for biotransformation. The drug concentrations were measured before and after a 12-h incubation by liquid-chromatography-coupled mass spectrometry (LC–MS); details: 2 µM
[6] = The drug is tested on Bacteroides fragilis strain: HMW610 for biotransformation. The drug concentrations were measured before and after a 12-h incubation by liquid-chromatography-coupled mass spectrometry (LC–MS); details: 2 µM
[7] = The drug is tested on Blautia luti strain: DSM14534 for biotransformation. The drug concentrations were measured before and after a 12-h incubation by liquid-chromatography-coupled mass spectrometry (LC–MS); type: ADME; set-up: dose 2 uM, timepoint 0 vs 12 hours; details: 2 µM
[8] = The drug is tested on Edwardsiella tarda strain: ATCC23685 for biotransformation. The drug concentrations were measured before and after a 12-h incubation by liquid-chromatography-coupled mass spectrometry (LC–MS); details: 2 µM
[9] = bacteroides fragilis, 12 h, 2 µM
Description: The drug is tested on Bacteroides fragilis strain: NCTC 9343 for biotransformation. The drug concentrations were measured before and after a 12-h incubation by liquid-chromatography-coupled mass spectrometry (LC–MS)

[10] = The drug is tested on Bacteroides ovatus strain: ATCC8483 for biotransformation. The drug concentrations were measured before and after a 12-h incubation by liquid-chromatography-coupled mass spectrometry (LC–MS); details: 2 µM
[11] = anaerostipes sp., 12 h, 2 µM
Description: The drug is tested on Anaerostipes sp. strain: fecal isolate for biotransformation. The drug concentrations were measured before and after a 12-h incubation by liquid-chromatography-coupled mass spectrometry (LC–MS)

[12] = The drug is tested on Bacteroides pectinophilus strain: ATCC43243 for biotransformation. The drug concentrations were measured before and after a 12-h incubation by liquid-chromatography-coupled mass spectrometry (LC–MS); details: 2 µM
[13] = The drug is tested on Eggerthella lenta strain: ATCC25559 for biotransformation. The drug concentrations were measured before and after a 12-h incubation by liquid-chromatography-coupled mass spectrometry (LC–MS); details: 2 µM
[14] = The drug is tested on Subdoligranulum variabile strain: DSM15176 for biotransformation. The drug concentrations were measured before and after a 12-h incubation by liquid-chromatography-coupled mass spectrometry (LC–MS); details: 2 µM
[15] = The drug is tested on Odoribacter splanchnicus strain: fecal isolate for biotransformation. The drug concentrations were measured before and after a 12-h incubation by liquid-chromatography-coupled mass spectrometry (LC–MS); details: 2 µM
[16] = The drug is tested on Bacteroides vulgatus strain: ATCC8482 for biotransformation. The drug concentrations were measured before and after a 12-h incubation by liquid-chromatography-coupled mass spectrometry (LC–MS); details: phocaeicola vulgatus, 2 µM
[17] = The drug is tested on Anaerococcus hydrogenalis strain: DSM7454 for biotransformation. The drug concentrations were measured before and after a 12-h incubation by liquid-chromatography-coupled mass spectrometry (LC–MS); details: 2 µM
[18] = The drug is tested on Clostridium symbiosum strain: ATCC14940 for biotransformation. The drug concentrations were measured before and after a 12-h incubation by liquid-chromatography-coupled mass spectrometry (LC–MS); details: 2 µM
[19] = The drug is tested on Bacteroides uniformis strain: ATCC8492 for biotransformation. The drug concentrations were measured before and after a 12-h incubation by liquid-chromatography-coupled mass spectrometry (LC–MS); details: 2 µM
[20] = The drug is tested on Alistipes indistinctus strain: DSM22520 for biotransformation. The drug concentrations were measured before and after a 12-h incubation by liquid-chromatography-coupled mass spectrometry (LC–MS); details: 2 µM

Structure (SMILES) | Bacterial Biotransformation [1] | Bacterial Biotransformation [2] | Bacterial Biotransformation [3] | Bacterial Biotransformation [4] | Bacterial Biotransformation [5] | Bacterial Biotransformation [6] | Bacterial Biotransformation [7] | Bacterial Biotransformation [8] | Bacterial Biotransformation [9] | Bacterial Biotransformation [10] | Bacterial Biotransformation [11] | Bacterial Biotransformation [12] | Bacterial Biotransformation [13] | Bacterial Biotransformation [14] | Bacterial Biotransformation [15] | Bacterial Biotransformation [16] | Bacterial Biotransformation [17] | Bacterial Biotransformation [18] | Bacterial Biotransformation [19] | Bacterial Biotransformation [20]
CC[C@@H](CO)NC(=O)[C@@H]1C=C2c3cccc4c3c(cn4C)C[C@H]2N(C)C1.O=C(O)/C=C\C(=O)O [METHYSERGIDE MALEATE] | Compound metabolized | Compound metabolized | Compound metabolized | Compound metabolized | Compound metabolized | Compound NOT metabolized | Compound metabolized | Compound metabolized | Compound metabolized | Compound metabolized | Compound metabolized | Compound metabolized | Compound metabolized | Compound metabolized | Compound metabolized | Compound metabolized | Compound metabolized | Compound metabolized | Compound metabolized | Compound metabolized
CC[C@H](C)C(=O)O[C@H]1CCC=C2C=C[C@H](C)[C@H](CC[C@@H]3C[C@@H](O)CC(=O)O3)[C@H]21 [MEVASTATIN] | Compound metabolized | Compound metabolized | Compound metabolized | Compound metabolized | Compound metabolized | Compound NOT metabolized | Compound metabolized | Compound metabolized | Compound metabolized | Compound metabolized | Compound metabolized | Compound metabolized | Compound metabolized | Compound metabolized | Compound metabolized | Compound metabolized | Compound metabolized | Compound metabolized | Compound metabolized | Compound metabolized
COc1c(C)c2c(c(O)c1C/C=C(\C)CCC(=O)OCCN1CCOCC1)C(=O)OC2 [MYCOPHENOLATE MOFETIL] | Compound metabolized | Compound metabolized | Compound metabolized | Compound metabolized | Compound metabolized | Compound metabolized | Compound metabolized | Compound metabolized | Compound metabolized | Compound metabolized | Compound metabolized | Compound metabolized | Compound metabolized | Compound metabolized | Compound metabolized | Compound metabolized | Compound metabolized | Compound metabolized | Compound metabolized | Compound metabolized
COc1ccc2[nH]c([S+]([O-])Cc3ncc(C)c(OC)c3C)nc2c1 (stereo not given) [OMEPRAZOLE] | Compound metabolized | Compound metabolized | Compound metabolized | Compound metabolized | Compound metabolized | Compound metabolized | Compound metabolized | Compound metabolized | Compound metabolized | Compound metabolized | Compound metabolized | Compound metabolized | Compound metabolized | Compound metabolized | Compound metabolized | Compound metabolized | Compound metabolized | Compound metabolized | Compound metabolized | Compound metabolized
Cc1nc2n(c(=O)c1CCN1CCC(c3noc4cc(F)ccc34)CC1)CCCC2O (stereo not given) [PALIPERIDONE] | Compound metabolized | Compound metabolized | Compound metabolized | Compound metabolized | Compound metabolized | Compound NOT metabolized | Compound metabolized | Compound metabolized | Compound metabolized | Compound metabolized | Compound metabolized | Compound NOT metabolized | Compound NOT metabolized | Compound metabolized | Compound metabolized | Compound metabolized | Compound metabolized | Compound metabolized | Compound metabolized | Compound metabolized
COc1ccnc(C[S+]([O-])c2nc3ccc(OC(F)F)cc3[nH]2)c1OC (stereo not given) [PANTOPRAZOLE] | Compound metabolized | Compound metabolized | Compound metabolized | Compound metabolized | Compound metabolized | Compound metabolized | Compound metabolized | Compound metabolized | Compound metabolized | Compound metabolized | Compound metabolized | Compound metabolized | Compound metabolized | Compound metabolized | Compound metabolized | Compound metabolized | Compound metabolized | Compound metabolized | Compound metabolized | Compound metabolized
